Activity calls are given as the source filed them.
Columns and labels:
[1] = target: Peroxisome proliferator-activated receptor gamma/Nuclear receptor coactivator 3 (Homo sapiens, UniProt P37231); test: TR-FRET dose response biochemical High Throughput Screening assay for agonists of the steroid receptor coactivator 3 (SRC-3) recruitment by the peroxisome proliferator-activated receptor gamma (PPAR gamma): non-selective agonists. [Related pubchem assays: 1301 (Confirmation screen.), 1048 (Primary screen.)]; format: functional
Sequence of Peroxisome proliferator-activated receptor gamma/Nuclear receptor coactivator 3 (P37231 whole entry): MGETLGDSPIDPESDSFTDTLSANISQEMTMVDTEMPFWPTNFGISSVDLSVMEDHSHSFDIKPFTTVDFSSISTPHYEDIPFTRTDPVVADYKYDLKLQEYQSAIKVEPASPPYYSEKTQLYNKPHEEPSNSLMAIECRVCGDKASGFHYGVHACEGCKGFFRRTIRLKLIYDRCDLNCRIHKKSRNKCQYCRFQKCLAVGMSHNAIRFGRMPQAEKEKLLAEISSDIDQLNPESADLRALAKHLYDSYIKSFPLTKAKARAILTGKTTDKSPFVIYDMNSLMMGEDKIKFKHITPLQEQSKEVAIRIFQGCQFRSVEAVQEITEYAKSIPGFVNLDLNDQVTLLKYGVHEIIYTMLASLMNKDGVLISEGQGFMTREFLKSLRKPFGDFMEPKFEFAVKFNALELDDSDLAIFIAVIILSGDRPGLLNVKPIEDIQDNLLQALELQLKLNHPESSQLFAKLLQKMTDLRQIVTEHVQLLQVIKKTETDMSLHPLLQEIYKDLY
Sequence of Peroxisome proliferator-activated receptor gamma/Nuclear receptor coactivator 3 (Q9Y6Q9 whole entry, further chain): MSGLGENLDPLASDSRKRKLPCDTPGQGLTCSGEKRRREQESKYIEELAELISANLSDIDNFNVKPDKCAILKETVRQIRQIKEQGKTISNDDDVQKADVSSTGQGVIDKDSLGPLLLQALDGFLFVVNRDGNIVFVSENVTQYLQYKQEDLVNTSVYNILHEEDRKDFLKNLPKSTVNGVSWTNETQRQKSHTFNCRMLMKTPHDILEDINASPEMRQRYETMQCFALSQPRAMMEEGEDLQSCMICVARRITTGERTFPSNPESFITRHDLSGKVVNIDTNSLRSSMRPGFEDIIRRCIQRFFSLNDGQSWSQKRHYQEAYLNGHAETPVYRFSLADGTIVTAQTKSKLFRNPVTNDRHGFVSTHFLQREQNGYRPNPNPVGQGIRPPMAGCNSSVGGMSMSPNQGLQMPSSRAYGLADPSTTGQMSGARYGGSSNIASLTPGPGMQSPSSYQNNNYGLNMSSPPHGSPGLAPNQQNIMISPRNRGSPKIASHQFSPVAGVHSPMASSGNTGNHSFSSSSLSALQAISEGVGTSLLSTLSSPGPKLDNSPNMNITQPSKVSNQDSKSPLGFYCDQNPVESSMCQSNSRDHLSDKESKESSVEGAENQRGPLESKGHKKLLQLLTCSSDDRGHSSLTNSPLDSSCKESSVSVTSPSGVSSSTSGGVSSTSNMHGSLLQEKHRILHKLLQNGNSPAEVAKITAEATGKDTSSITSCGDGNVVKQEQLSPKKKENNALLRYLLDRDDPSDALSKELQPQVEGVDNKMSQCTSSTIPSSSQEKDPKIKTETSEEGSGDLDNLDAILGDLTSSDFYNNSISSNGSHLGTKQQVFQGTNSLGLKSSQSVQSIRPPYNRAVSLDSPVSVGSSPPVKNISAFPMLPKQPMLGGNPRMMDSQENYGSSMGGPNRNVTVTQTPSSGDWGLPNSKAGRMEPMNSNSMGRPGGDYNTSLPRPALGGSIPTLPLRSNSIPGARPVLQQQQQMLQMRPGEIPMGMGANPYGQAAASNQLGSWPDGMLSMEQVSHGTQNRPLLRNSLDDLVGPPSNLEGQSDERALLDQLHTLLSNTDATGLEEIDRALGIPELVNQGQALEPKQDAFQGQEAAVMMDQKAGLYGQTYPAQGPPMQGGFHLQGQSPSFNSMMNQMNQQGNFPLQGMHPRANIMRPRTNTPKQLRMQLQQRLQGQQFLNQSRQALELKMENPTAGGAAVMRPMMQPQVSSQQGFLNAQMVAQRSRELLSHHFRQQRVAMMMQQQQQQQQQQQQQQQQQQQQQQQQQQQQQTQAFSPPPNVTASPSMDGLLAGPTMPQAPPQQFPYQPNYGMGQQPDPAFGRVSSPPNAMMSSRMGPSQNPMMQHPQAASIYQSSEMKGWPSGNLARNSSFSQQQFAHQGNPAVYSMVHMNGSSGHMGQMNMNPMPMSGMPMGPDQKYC

[2] = target: Peroxisome proliferator-activated receptor gamma/Nuclear receptor coactivator 2 (Homo sapiens, UniProt P37231); test: (§1) TR-FRET dose response biochemical High Throughput Screening assay for agonists of the steroid receptor coactivator 2 (SRC-2) recruitment by the peroxisome proliferator-activated receptor gamma (PPAR gamma): non-selective agonists. [Related pubchem assays: 1297, 1032 ]; format: functional
Sequence of Peroxisome proliferator-activated receptor gamma/Nuclear receptor coactivator 2 (P37231 whole entry): as the sequence (P37231 whole entry) above
Sequence of Peroxisome proliferator-activated receptor gamma/Nuclear receptor coactivator 2 (Q15596 whole entry, further chain): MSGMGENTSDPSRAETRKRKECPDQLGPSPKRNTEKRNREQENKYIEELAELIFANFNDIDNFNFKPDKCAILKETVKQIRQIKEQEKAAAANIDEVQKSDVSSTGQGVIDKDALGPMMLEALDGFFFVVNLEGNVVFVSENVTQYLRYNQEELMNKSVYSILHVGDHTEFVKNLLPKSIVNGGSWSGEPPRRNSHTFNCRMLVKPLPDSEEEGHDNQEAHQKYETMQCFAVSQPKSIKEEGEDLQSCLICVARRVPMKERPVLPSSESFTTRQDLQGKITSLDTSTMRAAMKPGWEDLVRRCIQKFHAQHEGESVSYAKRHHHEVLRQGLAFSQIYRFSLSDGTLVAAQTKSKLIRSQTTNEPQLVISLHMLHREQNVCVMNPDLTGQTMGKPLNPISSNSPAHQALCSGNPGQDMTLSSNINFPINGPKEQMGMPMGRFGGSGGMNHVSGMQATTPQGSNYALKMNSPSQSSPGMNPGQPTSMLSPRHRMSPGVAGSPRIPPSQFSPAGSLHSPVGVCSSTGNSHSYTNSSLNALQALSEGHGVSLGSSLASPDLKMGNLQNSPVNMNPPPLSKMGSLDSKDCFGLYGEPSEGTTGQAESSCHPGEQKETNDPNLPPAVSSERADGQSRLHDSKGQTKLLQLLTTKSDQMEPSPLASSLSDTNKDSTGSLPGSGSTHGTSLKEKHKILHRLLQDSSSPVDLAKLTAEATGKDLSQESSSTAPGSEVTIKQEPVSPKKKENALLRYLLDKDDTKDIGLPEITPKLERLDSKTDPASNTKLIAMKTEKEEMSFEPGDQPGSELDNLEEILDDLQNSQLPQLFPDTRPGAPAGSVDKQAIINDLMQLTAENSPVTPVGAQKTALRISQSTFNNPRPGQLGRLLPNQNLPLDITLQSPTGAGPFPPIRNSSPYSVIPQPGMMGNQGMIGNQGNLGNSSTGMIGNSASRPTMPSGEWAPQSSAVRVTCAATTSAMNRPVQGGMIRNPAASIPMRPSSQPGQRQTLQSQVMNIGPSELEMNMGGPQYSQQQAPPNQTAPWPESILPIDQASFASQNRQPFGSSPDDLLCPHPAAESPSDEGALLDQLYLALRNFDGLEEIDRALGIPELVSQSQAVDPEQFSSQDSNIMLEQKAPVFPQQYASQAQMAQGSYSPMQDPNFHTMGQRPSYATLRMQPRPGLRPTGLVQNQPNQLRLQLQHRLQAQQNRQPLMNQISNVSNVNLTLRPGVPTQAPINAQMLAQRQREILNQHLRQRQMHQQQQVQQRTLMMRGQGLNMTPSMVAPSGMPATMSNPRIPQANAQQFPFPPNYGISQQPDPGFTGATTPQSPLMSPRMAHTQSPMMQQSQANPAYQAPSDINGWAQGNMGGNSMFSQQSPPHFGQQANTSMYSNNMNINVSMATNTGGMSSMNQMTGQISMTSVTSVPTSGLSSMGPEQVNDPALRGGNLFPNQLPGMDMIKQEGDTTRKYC

[3] = target: Peroxisome proliferator-activated receptor gamma/Nuclear receptor coactivator 1 (Homo sapiens, UniProt P37231); test: as §1, with “1 (SRC-1)” for “2 (SRC-2)”, “assays (depositor defined):AID1300, AID1808, AID504735, AID631]” for “assays: 1297, 1032 ]”; format: protein assay
[4] = target: DNA dC->dU-editing enzyme APOBEC-3G (Homo sapiens, UniProt Q9HC16); format: functional;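 note: Dose-response counterscreen measuring inhibition of APOBEC3G DNA deaminase activity, run while confirming APOBEC3A inhibitors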
Sequence of DNA dC->dU-editing enzyme APOBEC-3G (Q9HC16 whole entry): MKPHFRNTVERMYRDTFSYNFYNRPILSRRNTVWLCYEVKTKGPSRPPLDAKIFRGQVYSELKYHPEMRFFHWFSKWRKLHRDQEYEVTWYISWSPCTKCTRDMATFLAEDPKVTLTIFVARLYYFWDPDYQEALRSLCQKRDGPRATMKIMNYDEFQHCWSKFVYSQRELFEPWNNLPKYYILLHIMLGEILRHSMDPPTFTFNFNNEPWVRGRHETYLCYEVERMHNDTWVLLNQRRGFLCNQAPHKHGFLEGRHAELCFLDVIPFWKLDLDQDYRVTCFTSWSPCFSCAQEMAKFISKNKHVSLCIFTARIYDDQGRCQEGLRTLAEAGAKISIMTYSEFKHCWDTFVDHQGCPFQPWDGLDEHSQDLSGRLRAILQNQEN

[5] = target: DNA dC->dU-editing enzyme APOBEC-3A (Homo sapiens, UniProt P31941); test: Dose Response confirmation of small molecule APOBEC3A DNA Deaminase Inhibitors via a fluorescence-based single-stranded DNA deaminase assay. [Related pubchem assays (depositor defined):AID493011, AID493024]; format: functional
Sequence of DNA dC->dU-editing enzyme APOBEC-3A (P31941 whole entry): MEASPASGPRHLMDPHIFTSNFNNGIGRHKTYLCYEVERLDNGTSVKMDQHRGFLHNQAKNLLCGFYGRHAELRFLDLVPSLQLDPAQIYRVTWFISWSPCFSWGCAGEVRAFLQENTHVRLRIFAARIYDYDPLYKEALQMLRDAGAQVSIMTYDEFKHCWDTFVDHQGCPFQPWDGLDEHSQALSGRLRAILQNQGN

[6] = Vero E6 cell cytotoxicity, dose response, cytotoxicity control for non-replicating M. tuberculosis project, secondary assay (AID 492998); format: functional, VeroE6; conditions: Vero C1008
[7] = Shn3 3'UTR reporter inhibitors, dose response, cell-based, Clone20 osteoblasts, firefly luciferase, cherry-picked (AID 624132); format: functional;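 note: firefly luciferase luminescence from reporter carrying the Shn3 3'UTR in osteoblasts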
INS1 = test: beta cell apoptosis inhibitors, cytokine rescue, dose response, luminescence, retest (AID 449756); format: functional, cell-based; conditions: Rattus norvegicus;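 note: cell death triggered by IL-1 beta plus TNF-alpha plus IFN-gamma mixture; protective hits raise ATP signal compared with cytokine alone wells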
[8] = Luminescence Cell-Based Dose Confirmation HTS to Identify Activators of 5'UTR Stem-Loop Driven Alpha-Synuclein mRNA Translation in H4 Neuroglioblastoma Cells. [Related pubchem assays: 1829 (Project Summary), 1814 (Primary HTS)]; format: functional
[9] = HepG2 cell cytotoxicity, dose response, cytotoxicity control for Shn3 inhibitor project, CellTiter-Glo, cherry-picked (AID 624134); format: functional, cell-based
[10] = cytotoxicity toward NIH3T3 fibroblasts, dose response, counter-screen, cell-based, ATP luminescence, mouse fibroblasts (AID 2010); format: functional;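 note: cells exposed to compound for about 90 hours before reading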
cells = format: functional
[11] = HepG2 cell cytotoxicity, dose response, cytotoxicity control for non-replicating M. tuberculosis project (AID 489018); format: functional; conditions: Mycobacterium tuberculosis
[12] = control 3'UTR Renilla luciferase suppression, dose response, counter-screen for Shn3 inhibitor project, cell-based, Clone20-Shn3RL, cherry-picked (AID 624133); format: functional
[13] = Luminescence Cell-Based Dose Response HTS to Identify Activators of Luciferase Translation or Activity in H4 […] Cells. [Related pubchem assays: 1829 (Project Summary), 1814 (Primary HTS)]; format: functional
[14] = growth suppression of PTEN-null colon cells, dose response, cell-based, HCT116 PTEN knockout (AID 1047); format: functional;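 note: HCT116 colon tumor cells with PTEN knocked out; cells exposed to compound for 60 hours before readout; potency for loss of cell viability measured by luminescence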
[15] = inhibitors of intracellular T. cruzi replication, confirmation, NIH3T3 host cells, beta-gal luminescence (AID 2044); format: functional, cell-based;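 note: intracellular parasites grown in NIH/3T3 mouse fibroblasts as host cells; luminescent beta-galactosidase reporter signal from transgenic T. cruzi replicating inside host cells; inhibitors lower the luminescence signal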
[16] = THP-1 cell cytotoxicity, dose response, cytotoxicity control for non-replicating M. tuberculosis project (AID 489025); format: functional
H4 = test: Luminescence Cell-Based Dose Response HTS to Identify Activators of 5'UTR Stem-Loop Driven Prion Protein mRNA Translation in H4 Neuroglioblastoma Cells. [Related pubchem assays: 1829 (Project Summary), 1814 (Primary HTS)]; format: functional; conditions: Homo sapiens
[17] = growth suppression of beta-catenin-knockout colon cells, dose response, cell-based, HCT116, human colon tumor (AID 1045); format: functional;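 note: HCT116 colon tumor cells with beta catenin knocked out; cells exposed to compound for 60 hours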
Coagulation factor XII = target: T1, Coagulation factor XII (Homo sapiens, UniProt P00748); format: functional;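 note: activated factor XIIa alpha cleaving a fluorogenic AMC peptide substrate; inhibitor potency from loss of enzyme activity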
T1 sequence (P00748 whole entry): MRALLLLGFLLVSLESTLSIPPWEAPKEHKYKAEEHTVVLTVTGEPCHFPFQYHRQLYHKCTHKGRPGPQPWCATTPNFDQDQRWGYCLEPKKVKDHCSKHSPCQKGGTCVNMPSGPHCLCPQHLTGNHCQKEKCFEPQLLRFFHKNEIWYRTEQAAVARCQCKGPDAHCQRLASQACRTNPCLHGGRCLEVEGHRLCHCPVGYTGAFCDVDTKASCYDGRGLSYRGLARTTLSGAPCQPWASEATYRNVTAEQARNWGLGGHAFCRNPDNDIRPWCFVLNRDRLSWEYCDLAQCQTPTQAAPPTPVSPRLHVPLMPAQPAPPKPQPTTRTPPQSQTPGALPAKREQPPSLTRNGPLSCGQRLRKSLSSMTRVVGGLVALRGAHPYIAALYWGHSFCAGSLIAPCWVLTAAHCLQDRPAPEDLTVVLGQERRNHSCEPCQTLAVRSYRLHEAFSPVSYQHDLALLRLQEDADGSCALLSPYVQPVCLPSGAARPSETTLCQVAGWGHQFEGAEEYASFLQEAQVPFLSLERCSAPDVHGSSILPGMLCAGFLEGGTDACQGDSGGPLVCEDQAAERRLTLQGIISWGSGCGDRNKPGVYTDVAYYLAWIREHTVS

[18] = target: T2, Alkaline phosphatase, tissue-nonspecific isozyme (Homo sapiens, UniProt P05186); test: human TNAP enzyme inhibitors, SAR follow-up, biochemical, luminescent, dose response (AID 1056)
T2 sequence (P05186 whole entry): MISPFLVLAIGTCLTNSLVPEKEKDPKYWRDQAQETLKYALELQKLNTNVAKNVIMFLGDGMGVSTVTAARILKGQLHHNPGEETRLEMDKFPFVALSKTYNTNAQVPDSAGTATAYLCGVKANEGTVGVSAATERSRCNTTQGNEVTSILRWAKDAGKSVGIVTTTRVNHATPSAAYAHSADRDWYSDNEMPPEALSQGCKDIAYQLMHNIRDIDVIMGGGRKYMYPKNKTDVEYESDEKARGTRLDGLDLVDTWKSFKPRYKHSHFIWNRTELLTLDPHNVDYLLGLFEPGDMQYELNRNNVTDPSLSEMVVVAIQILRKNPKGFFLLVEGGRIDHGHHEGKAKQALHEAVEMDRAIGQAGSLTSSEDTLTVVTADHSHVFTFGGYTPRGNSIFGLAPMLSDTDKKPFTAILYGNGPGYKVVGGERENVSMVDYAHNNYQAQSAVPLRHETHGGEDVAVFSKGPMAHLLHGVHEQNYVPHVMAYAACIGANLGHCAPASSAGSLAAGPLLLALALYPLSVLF

[19] = target: Glyceraldehyde-3-phosphate dehydrogenase (Homo sapiens, UniProt P04406)
Sequence of Glyceraldehyde-3-phosphate dehydrogenase (P04406 whole entry): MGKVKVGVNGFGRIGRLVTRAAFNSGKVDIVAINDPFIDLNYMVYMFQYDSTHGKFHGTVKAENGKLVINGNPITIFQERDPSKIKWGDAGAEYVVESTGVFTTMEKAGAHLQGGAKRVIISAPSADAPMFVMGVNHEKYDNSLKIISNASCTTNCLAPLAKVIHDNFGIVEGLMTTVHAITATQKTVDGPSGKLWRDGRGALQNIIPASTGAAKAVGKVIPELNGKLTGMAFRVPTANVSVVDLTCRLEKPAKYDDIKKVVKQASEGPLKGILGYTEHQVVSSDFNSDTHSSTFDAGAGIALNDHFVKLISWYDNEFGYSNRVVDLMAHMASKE

[20] = Luminescence Cell-Based Dose Retest to Confirm Inhibitors of Cancer Stem Cells. [Related pubchem assays (depositor defined):AID2717, AID2721]; format: functional; conditions: Homo sapiens
[21] = target: T3, Ubiquitin-conjugating enzyme E2 N (Homo sapiens, UniProt P61088); format: functional;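 note: Dose-response confirmation in a TR-FRET assay detecting UBC13-driven polyubiquitin chain formation, inhibition measured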
T3 sequence (P61088 whole entry): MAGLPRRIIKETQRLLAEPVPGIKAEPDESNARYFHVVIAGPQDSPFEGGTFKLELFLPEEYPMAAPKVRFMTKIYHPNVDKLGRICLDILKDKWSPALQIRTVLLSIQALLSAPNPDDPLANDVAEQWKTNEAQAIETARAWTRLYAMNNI

[22] = target: Eukaryotic translation initiation factor 4E (Mus musculus, UniProt P63073); test: eIF4E–eIF4G protein interaction inhibitors, dose response, biochemical, TR-FRET (AID 855); format: functional;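 note: potency for disrupting eIF4E binding to eIF4GI seen as loss of FRET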
Sequence of Eukaryotic translation initiation factor 4E (P63073 whole entry): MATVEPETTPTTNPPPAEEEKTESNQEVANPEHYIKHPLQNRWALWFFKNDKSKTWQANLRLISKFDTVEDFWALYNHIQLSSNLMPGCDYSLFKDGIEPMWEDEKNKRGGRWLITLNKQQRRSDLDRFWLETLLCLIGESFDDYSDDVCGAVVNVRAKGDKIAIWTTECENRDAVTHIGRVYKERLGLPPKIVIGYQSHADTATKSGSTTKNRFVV

SMILES: COc1cccc(OC)c1C(=O)Nc1nnc(-c2cccs2)s1
- EC50 [1]: > 79.4 µM (not active)
- EC50 [2]: 22 µM (not active)
- EC50 [3]: 17.7 µM (inactive)

SMILES: CCN1CCN(S(=O)(=O)c2ccc(Cl)c(C(=O)N(C)C(c3ccccc3)c3ccccc3)c2)CC1
- IC50 [4]: 5.67 µM (active)
- IC50 [5]: 4.6 µM (active)

SMILES: CN(C)CC(C(=O)c1ccccc1)c1ccccc1 (stereo not drawn)
- CC50 [6]: 10.6 µM (active)
- AC50 [7]: 2.8 µM (active)
- AC50 (INS1): 7.43 µM (active)
- EC50 [8]: > 120 µM (not active)
- AC50 [9]: 19.2 µM (active)
- EC50 [10]: > 30 µM (not active)
- IC50 (cells): 4.64 µM (active)
- CC50 [11]: 12.9 µM (active)
- AC50 [12]: 8.54 µM (active)
- EC50 [13]: > 120 µM (not active)
- EC50 [14]: 5.35 µM (active)
- EC50 [15]: 3.6 µM (active)
- CC50 [16]: 7.72 µM (active)
- EC50 (H4): > 120 µM (not active)
- EC50 [17]: 2.99 µM (active)

SMILES: Cc1cc(NC(=O)CCN2C(=O)/C(=C/c3ccccc3F)SC2=S)no1
- IC50 (Coagulation factor XII): > 50 µM (inactive)

SMILES: c1cncc(-c2cnc3ccccc3c2)c1
- IC50 [18]: > 100 µM (inactive)
- IC50 [19]: > 100 µM (not active)

SMILES: COc1ccc2nc(C)cc(N/N=C/c3ccccc3)c2c1
- CC50 [6]: 6.15 µM (active)
- AC50 [20]: 5.6 µM (active)
- AC50 (INS1): 2.68 µM (active)
- IC50 [21]: > 20 µM (inactive)
- IC50 (cells): 0.52 µM (active)
- CC50 [11]: 9.19 µM (active)
- CC50 [16]: 10.9 µM (active)

SMILES: Cc1ccccc1N=Nc1c(C)[nH]n(-c2ccccc2)c1=O
- IC50 [22]: 50 µM (inactive)

SMILES: Cn1cnc(-c2cccnc2)c1
- IC50 [18]: > 100 µM (inactive)
- IC50 [19]: > 100 µM (not active)

Reference: ChEMBL document CHEMBL1201862, “PubChem BioAssay data set” (2004)
